Holding throughout (type): functional, cell-based
One test deals with A549. The test is described as follows: Cytotoxicity against human A549 cells assessed as reduction in cell viability after 72 hrs by MTT assay. To be noted: A549, 72 h. (In general: Tetrazolium assays rely on reduction of a dye to a coloured formazan, in cell work by metabolically active cells.)
A further test deals with HT-29. The test is described as follows: Cytotoxicity against human HT-29 cells assessed as reduction in cell viability after 72 hrs by MTT assay. The settings on record: HT-29, 72 h.
The subject of a further test is P388. As to the kind of experiment: Cytotoxicity against mouse p388 cells assessed as reduction in cell viability after 72 hrs by MTT assay. To be noted: P388, 72 h.

These results are taken from ChEMBL document CHEMBL4673349, “Trichodestruxins A-D: Cytotoxic Cyclodepsipeptides from the Endophytic Fungus Trichoderma harzianum” (J Nat Prod, 2020).

For orientation: IC50 means the concentration that gives 50% inhibition.

Counter-ions that a name gives are not always drawn.

On to `C=CC[C@H]1OC(=O)CCNC(=O)[C@H](C)N(C)C(=O)[C@H](C(C)C)N(C)C(=O)[C@H](C(C)C)NC(=O)[C@@H]2[C@@H](C)CCN2C1=O`, for which the IC50 with A549 turned out to be 15.6 µM; in the test on HT-29, 7.8 µM; with P388, 17 µM.

With `CC(C)[C@@H]1NC(=O)[C@@H]2[C@@H](C)CCN2C(=O)[C@@H](C[C@@H](O)CO)OC(=O)CCNC(=O)[C@H](C)N(C)C(=O)[C@H](C(C)C)N(C)C1=O`, the results for the IC50 in the test on A549, in the test with HT-29 and with P388 were 8.8 µM, 16.7 µM and 19.1 µM, respectively.

On to `CC(C)C[C@H]1OC(=O)CCNC(=O)[C@H](C)NC(=O)[C@H](C(C)C)N(C)C(=O)[C@H](C(C)C)NC(=O)[C@@H]2[C@@H](C)CCN2C1=O`, for which the concentration for half-maximal inhibition (IC50) is 17.5 µM in the test on A549, above 20 µM with HT-29 and above 20 µM in the test on P388.

For `CC(C)C[C@H]1OC(=O)CCNC(=O)[C@H](C)N(C)C(=O)[C@H](C(C)C)N(C)C(=O)[C@H](C(C)C)NC(=O)[C@@H]2[C@@H](C)CCN2C1=O`, the results for the IC50 with A549, with HT-29 and with P388 were 10.3 µM, 3.4 µM and 8.4 µM, respectively.

Consider `COc1cccc2c1C(=O)c1c(O)c3c(c(O)c1C2=O)C[C@@](O)(C(=O)CO)C[C@@H]3O[C@H]1C[C@H](N)[C@H](O)[C@H](C)O1` [DOXORUBICIN HYDROCHLORIDE], for which the results for the IC50 in the test with A549, with HT-29 and in the test on P388 were 2.3 µM, 1.8 µM and 0.3 µM, respectively.
